The values below come from article PMC6270290, “Synthesis of Bistetrahydroquinolines as Potential Anticholinesterasic Agents by Double Diels-Alder Reactions” (Molecules, 2013).

In this assay the target is acetylcholinesterase (AChE) (Electrophorus electricus, UniProt O42275). The assay can be described thus: Ellman colorimetric assay, acetylthiocholine hydrolysis. The assay is classed as biochemical.
Sequence of acetylcholinesterase (AChE) (O42275 24-633): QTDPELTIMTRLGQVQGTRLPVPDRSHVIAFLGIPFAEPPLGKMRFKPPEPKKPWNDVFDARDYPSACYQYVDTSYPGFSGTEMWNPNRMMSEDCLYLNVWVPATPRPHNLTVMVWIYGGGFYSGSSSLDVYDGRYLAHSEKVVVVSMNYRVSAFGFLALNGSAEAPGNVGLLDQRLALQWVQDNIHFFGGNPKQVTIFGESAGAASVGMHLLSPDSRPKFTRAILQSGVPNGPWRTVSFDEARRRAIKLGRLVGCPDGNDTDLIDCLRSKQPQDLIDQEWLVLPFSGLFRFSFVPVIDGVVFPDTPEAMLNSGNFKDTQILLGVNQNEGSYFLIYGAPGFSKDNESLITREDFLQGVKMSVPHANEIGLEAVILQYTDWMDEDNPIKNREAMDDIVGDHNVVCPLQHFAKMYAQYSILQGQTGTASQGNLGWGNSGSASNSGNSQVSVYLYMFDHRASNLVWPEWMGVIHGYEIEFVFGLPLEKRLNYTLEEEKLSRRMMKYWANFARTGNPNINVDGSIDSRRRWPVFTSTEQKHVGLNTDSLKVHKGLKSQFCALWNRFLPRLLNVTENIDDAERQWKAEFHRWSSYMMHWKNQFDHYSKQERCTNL

Regarding `COc1ccc2c(c1)C(N1CCCC1=O)CC(c1cccc(C3CC(N4CCCC4=O)c4cc(OC)ccc4N3)c1)N2` (stereo not shown) [5c, 1,3-bis(6'-Methoxy-4'-(2-oxopyrrolidinyl-1)-1',2',3',4'-tetrahydroquinolin-2-yl)benzene], the IC50 (commonly the midpoint of a concentration-inhibition curve) was 122 µM.
